According to PMC8841740, “Fluorescent Ligand-Based Discovery of Small-Molecule Sulfonamide Agonists for GPR120” (Frontiers in Chemistry, 2022):

Legend:
db/db mice [1] = test: Fasting blood glucose in db/db mice after 4 weeks of administration; format: in vivo; settings: gavage once a day
Protocol: (§1) All animal studies were approved by the Ethics Committee and IACUC of Cheeloo College of Medicine, Shandong University, and were conducted in compliance with European Guidelines for the Care and Use of Laboratory Animals. After adaptive feeding for 10–15 days, the db/db mice were divided into positive control group (30 mg/kg), low content compound group (10 mg/kg), high content compound group (30 mg/kg), and negative control group (the same volume dosing solvent). These mice were administrated by gavage once a day (administration volume, 20 ml/kg) for four consecutive weeks. During the administration period, the fasting blood glucose (without food and water for 6 h) was measured twice a week by using a blood glucose meter. The blood glucose level was measured for four consecutive weeks. The data was processed with Graphpad 8.2 software ([Cox et al., 2017]; [Zhang et al., 2017]).

db/db mice [2] = test: Glucose tolerance test in db/db mice; format: in vivo
Protocol: On the last day of the dosing cycle, the fasting blood glucose of mice was measured (without food and water for 6 h), and glucose solution (100 mg/kg) was injected. The blood glucose was measured at […] (5, 10, 30, 60, and 120 min). Finally, the area under the curve was analyzed with SPSS 24 software.

GPR120 [3] = target: T1, GPR120 (Homo sapiens, UniProt Q5NUL3); test: BRET activity test (β-arrestin-2 recruitment, GPR120-YFP / β-arrestin-2-Rluc in HEK293 cells); format: cell-based; design: host or cells: HEK293 (transfected with both plasmids)
T1 sequence (Q5NUL3 1-361): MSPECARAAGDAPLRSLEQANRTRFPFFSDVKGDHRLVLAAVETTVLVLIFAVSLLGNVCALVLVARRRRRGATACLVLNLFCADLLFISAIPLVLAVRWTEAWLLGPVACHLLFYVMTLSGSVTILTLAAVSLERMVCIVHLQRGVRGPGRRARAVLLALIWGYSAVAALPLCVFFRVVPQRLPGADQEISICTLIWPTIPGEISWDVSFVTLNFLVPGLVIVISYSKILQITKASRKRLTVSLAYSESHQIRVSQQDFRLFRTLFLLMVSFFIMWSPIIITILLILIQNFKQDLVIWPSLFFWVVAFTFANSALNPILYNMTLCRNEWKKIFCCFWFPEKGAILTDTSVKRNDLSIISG
Protocol: GPR120-YFP and β-arresting-2-Rluc plasmids were transfected into HEK293 cells. After a 24-h incubation, the cells were seeded in a black 96-well plate (100 μl, 20,000 cells per well). Followed by a 24-h incubation, the solution was removed from the plate, and compounds with different concentrations (100 μl per well) and coelenterazine (10 μM, 100 μl per well) were added, followed by the fluorescence intensity was measured at 460 and 520 nm with the microplate reader ([Christiansen et al., 2016]; [Hill et al., 2018]).

[4] = Weight changes of db/db mice during four weeks of administration; format: in vivo
Protocol: as §1

GPR120 [5] = target: T1, GPR120; test: Preliminary screening of agonists by BRET competition with probe N1; format: binding; design: expressed in transfected cells; settings: 10 μM compound, probe N1 400 nM
Protocol: HEK293 cells stably transfected with the GPR120-Rluc gene were seeded in a black 96-well plate (100 μl, 2 × 10^4 cells per well). After a 24-h incubation, the medium was removed, probe N1 (400 nM, 50 μl per well) was added, and 10 μM of the compound was added after a 30-min incubation as well. Followed by a 40-min incubation, coelenterazine (final concentration: 10 μM, 50 μl per well) was added to the plate. Afterward, the fluorescence intensity was measured at 450 and 550 nm with the microplate reader after another 10-min incubation.

GPR120 [6] = test: Bias of agonists (Gq versus β-arrestin2 pathway); format: cell-based; settings: reference GSK137647A pathways P1 Gq, P2 β-arrestin2
Excerpt: The bias was quantified by Eq. 1, in which β is the bias factor, Emax is the maximum effect produced by the agonist, and Pl and P2 represents the Gq and β-arrestin2 signal pathway, respectively.
Formula 1: β=log((Emax,P1/EC50,P1EC50,P2/Emax,P2)lig×(Emax,P2/EC50,P2EC50,P1/Emax,P1)ref) (1)

GPR120 [7] = target: T1, GPR120; test: GPR120 Ca2+ flow assay in HEK293 cells stably transfecting the GPR120-Rluc gene; format: cell-based; design: expressed in transfected cells
Protocol: Ca^2+ flow activity was determined in HEK293 cells stably transfecting the GPR120-Rluc gene. After incubating the cells for 24 h, the medium was removed from the plate, and the cells were washed with HBSS buffer (without Ca^2+ and Mg^2+). Subsequently, a 2-μM Fluo-4 AM working solution in HBSS buffer (without Ca^2+ and Mg^2+) was added to the plate (40 μl per well).

GPR40 = target: T2, GPR40 (Homo sapiens, UniProt O14842); test: GPR40 Ca2+ flow assay in CHO cells with transient GPR40 gene; format: cell-based
T2 construct: expressed in transfected cells; host or cells: CHO (transient)
Protocol: Ca^2+ flow activity was determined in HEK293 cells stably transfecting the GPR120-Rluc gene. After incubating the cells for 24 h, the medium was removed from the plate, and the cells were washed with HBSS buffer (without Ca^2+ and Mg^2+). Subsequently, a 2-μM Fluo-4 AM working solution in HBSS buffer (without Ca^2+ and Mg^2+) was added to the plate (40 μl per well). After incubating the cells for 20 min at 37°C, compound solution at different concentrations in HBSS buffer (per well 160 μl) was added. Followed by a 40-min incubation, the solution was removed from the plate, HEPES buffer (200 μl per well) was added, and the fluorescence intensity was detected using the microplate reader (Ex: 488 nm; Em: 520 nm) ([Watterson et al., 2017]).
Ca^2+ flow activity was determined in CHO cells with transient GPR40 gene by the same method as well, in which the GPR40 agonist TAK875 was used as a positive control.

GPR120 [8] = target: T1, GPR120; test: Fluorescence imaging in HEK293 cells (stably transfected with GPR120) and PC-3 cells; format: cell-based; design: expressed in transfected cells
Protocol: HEK293 and PC-3 cells were seeded in fluorescent confocal dishes (5 × 10^3 per well). After the cells were iron-walled, the medium was removed from the dishes, the cells were washed once with a serum-free medium, and the probe was added. After incubating the cells for 10 min, the confocal dishes were observed by an inverted fluorescence microscope.

[9] = Optical property of fluorescent probes; format: physicochemical
Protocol: The stocking solution of probes was diluted with acetonitrile to 40 μM, and their ultraviolet absorption spectrum was scanned with an ultraviolet spectrophotometer. Secondly, the excitation and emission spectra of probes at 10, 20, 30, and 40 μM with PBS buffer were measured with a microplate reader. Moreover, the excitation and emission spectrum were recorded in four solvents: MeCN, DMSO, H2O, and EA, respectively.

GPR120 [10] = target: T1, GPR120; test: BRET saturation experiment of probe N1; design: expressed in transfected cells; settings: 15 μM GSK134647A for non-specific binding
Protocol: HEK293 cells stably transfecting the GPR120-Rluc gene were seeded in two black 96-well plates (100 μl, 2 × 10^4 cells per well). After incubating the cells for 24 h, the medium of the non-specific plate was removed, and positive control GSK134647A (15 μM, 50 μl per well) was added into each well. After a 40-min incubation, the medium was removed, and probe N1 was added into two plates (100 μl per well). Followed by incubation for 40 min, coelenterazine was added to the plates (final concentration: 10 μM, 100 μl per well for specific plates; 50 μl per well for non-specific plates). Finally, the fluorescence intensity was measured at 460 and 520 nm with the microplate reader after a 10-min incubation ([Christiansen et al., 2016]).

GPR120 [11] = target: T1, GPR120; test: BRET kinetic binding experiment of probe N1; design: expressed in transfected cells
Protocol: HEK293 cells stably transfecting the GPR120-Rluc gene were seeded in two entirely black 96-well plates (100 μl, 2 × 10^4 cells per well). After a 24-h incubation, the medium was removed from the non-specific plate, coelenterazine was added to (final concentration: 10 μM, 50 μl per well) the plates, and BRET value was measured after a 5-min incubation. Probe N1 (500 nM, 100 μl per well) was then added, and the BRET value was recorded in a 30-s interval for 6 minutes. Finally, GSK137647A was added (50 μl per well), and BRET value was measured in a 30-s interval for 30 min.

FFA4 = tested on: FFA4; design: method as in Sparks et al., 2014; settings: in Figure 3; ref Sparks et al., 2014; cited from earlier work
FFA1 = tested on: FFA1; design: method as in Sparks et al., 2014; settings: in Figure 3; ref Sparks et al., 2014; cited from earlier work
GPR120 [12] = target: T1, GPR120; test: BRET competitive binding experiment with probe N1; design: expressed in transfected cells; settings: probe N1 400 nM, read-out: pKi (N1) (converted)
Protocol: HEK293 cells stably transfected with the GPR120-Rluc gene were seeded in a black 96-well plate (100 μl, 2 × 10^4 cells per well). After the cells were incubated for 24 h, the medium was removed, and probe N1 (400 nM, 50 μl per well) was added. […] Followed by a 40-min incubation, coelenterazine was added to (final concentration: 10 μM, 50 μl per well) the plates. Thenceforward, the fluorescence intensity was measured at 450 and 550 nm with the microplate reader after a 10-min incubation.

GPR120 [13] = settings: cited from earlier work
[14] = GPR120, β-arrestin-2 activity test, read-out: pEC50 BRET (converted)
[15] = GPR120, Ca2+ flow, HEK293 GPR120-Rluc cells, read-out: pEC50 Ca2+ assay (converted)

O=S(=O)(Nc1ccc(F)cc1)c1ccc(-c2ccc(OC(F)(F)F)cc2)cc1 [Compound D5, N-(4-Fluorophenyl)-4′-(Trifluoromethoxy)-[1,1′-Biphenyl]-4-Sulfonamide]
fasting blood glucose-lowering level compared with GSK137647A (db/db mice [1]; 10 mg/kg): the same blood glucose-lowering level
fasting blood glucose-lowering level compared with GSK137647A (db/db mice [1]; 30 mg/kg): a higher blood-glucose-lowering level
reduction of blood glucose AUC0–120 min (db/db mice [2]; 10 mg/kg): 15.3%
reduction of blood glucose AUC0–120 min (db/db mice [2]; 30 mg/kg): 30.3%
Emax (FFA4 β-arrestin2) (GPR120 [3]; GSK137647A used as a standard): 1.12
EC50 (GPR120 [3]; Table 3, read-out: FFA4 (β-arrestin2 pEC50) (converted)): 34.7 nM
weight change ([4]; 10 mg/kg): reached a stable level in the fourth week
weight change ([4]; 30 mg/kg): decreased in the fourth week
inhibition rate in BRET screening compared with GSK137647A (GPR120 [5]): higher than GSK137647A
bias (bias factor, Gq vs β-arrestin2) (GPR120 [6]): relatively biased towards the Gq pathway
Emax (FFA4 Ca2+) (GPR120 [7]; GSK137647A used as a standard): 1.22
EC50 (GPR120 [7]; Table 3, read-out: FFA4 (Ca2+ pEC50) (converted)): 5.37 nM
EC50 (GPR40; CHO cells, GPR40, read-out: FFA1 (Ca2+ pEC50) (converted)): > 50100 nM
fluorescence intensity of N1 after co-incubation (competitive cell imaging) (GPR120 [8]; N1 0.5 μM and D5 10 μM, HEK293 cells stably transfected with GPR120): decreased significantly
melting point: 148 to 149 °C

Cc1cc(C)c(NS(=O)(=O)c2ccc(NCCN3C(=O)c4cccc5c(N(C)C)ccc(c45)C3=O)cc2)c(C)c1 [Compound N1, 4-((2-(6-(Dimethylamino)-1,3-dioxo-1H-benzo[de]isoquinolin-2(3H)-yl)ethyl)amino)-N-mesitylbenzenesulfonamide]
λabs ([9]; MeCN): 419 nm
Φ (absolute quantum yield) ([9]; PBS): 3.73%
λem ([9]; PBS): 562 nm
λex ([9]; PBS): 444 nm
SS (stokes shift) ([9]; PBS buffer (pH = 7.4)): 118 nm
EC50 (GPR120 [3]; [14]): 427 nM
Kd (GPR120 [10]): 1120 ± 600 nM
EC50 (GPR120 [7]; [15]): 891 nM
Ca2+ response to GPR40 compared with TAK875 (GPR40; TAK875 as positive control): much lower than that of TAK875
time to reach a stable state of dissociation from GPR120 (GPR120 [11]; after adding excess GSK137647A): 30 min
Kd (GPR120 [11]; kinetic binding experiment): 273 nM
time for binding to GPR120 to reach saturation (GPR120 [11]; probe 500 nM): ≤ 6 min
koff (GPR120 [11]; probe 500 nM, dissociation by GSK137647A (10 μM), read-out: off-rate koff (converted)): 0.00113 s⁻¹
kon (GPR120 [11]; probe 500 nM, read-out: on-rate kon (converted)): 4150 M⁻¹ s⁻¹
fluorescence intensity in cell imaging (GPR120 [8]; HEK293 and PC-3 cells): much greater than that of N2 and N3
melting point: 230 to 231 °C

COc1ccc(S(=O)(=O)Nc2c(C)cc(C)cc2C)cc1 [GSK137647A, reference compound]
reduction of blood glucose AUC0–120 min (db/db mice [2]; 30 mg/kg): 19.3%
EC50 (GPR120 [3]; [14]): 178 nM
FFA4 Human pEC50 (FFA4): 6.3(0.17)
FFA1 Human pEC50 (FFA1): < 4.5
EC50 (GPR120 [7]; [15]): 44.7 nM
pEC50 (Ca2+ assay) (GPR120 [7]; GPR120, Table 2): 7.35 ± 0.59
Ki (GPR120 [12]): 110 nM
pEC50 (Literature) (GPR120 [13]): 6.30 ± 0.2^16
